Results reported in publication PMC7265341, “Quantifying CDK inhibitor selectivity in live cells” (Nature Communications, 2020).
Read-outs that look alike come from different tables or passages of the source.

Tests used:
CDK4/Cyclin D1 = CDK4/Cyclin D1 (Homo sapiens, UniProt P11802); test: NanoBRET live-cell target engagement, NanoLuc-CDK4/Cyclin D1 in HEK-293; assay type: binding; details: CDK4/D1; for IC50: read-out: IC50; for inhibition at 10 µM: read-out: Inhibition at 10µM (%)
CDK5/CDK5R1 = CDK5/CDK5R1 (Homo sapiens, UniProt Q00535); test: NanoBRET live-cell target engagement, CDK5-NanoLuc/CDK5R1 in HEK-293; assay type: binding; details: CDK5/CDK5R1, read-out: Inhibition at 10µM (%)
Chain of CDK5/CDK5R1 (Q00535 whole entry): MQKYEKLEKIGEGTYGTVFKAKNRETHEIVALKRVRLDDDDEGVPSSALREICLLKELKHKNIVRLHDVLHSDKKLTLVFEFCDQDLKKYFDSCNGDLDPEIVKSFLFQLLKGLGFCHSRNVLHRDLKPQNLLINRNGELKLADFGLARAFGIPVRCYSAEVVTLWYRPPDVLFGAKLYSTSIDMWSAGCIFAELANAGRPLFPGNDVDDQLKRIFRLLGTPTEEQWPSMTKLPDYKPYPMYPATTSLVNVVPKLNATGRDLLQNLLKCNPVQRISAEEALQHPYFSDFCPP
Chain of CDK5/CDK5R1 (Q15078 whole entry partner): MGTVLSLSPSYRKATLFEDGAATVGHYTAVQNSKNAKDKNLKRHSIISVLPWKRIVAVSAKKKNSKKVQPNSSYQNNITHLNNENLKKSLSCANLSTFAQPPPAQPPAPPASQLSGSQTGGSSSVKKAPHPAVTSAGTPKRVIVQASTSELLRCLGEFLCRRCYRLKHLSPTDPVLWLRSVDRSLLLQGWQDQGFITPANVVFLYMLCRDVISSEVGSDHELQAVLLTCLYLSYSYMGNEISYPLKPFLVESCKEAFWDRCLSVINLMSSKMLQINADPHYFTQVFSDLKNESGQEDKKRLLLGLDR

CDK6/Cyclin D1 = CDK6/Cyclin D1 (Homo sapiens, UniProt Q00534); test: NanoBRET live-cell target engagement, NanoLuc-CDK6/Cyclin D1 in HEK-293; assay type: binding; details: CDK6/D1, read-out: Inhibition at 10µM (%)
CDK8/Cyclin C = CDK8/Cyclin C (Homo sapiens, UniProt P49336); test: NanoBRET live-cell target engagement, NanoLuc-CDK8/Cyclin C in HEK-293; assay type: binding; details: CDK8/C, read-out: Inhibition at 10µM (%)
CDK9/Cyclin K = CDK9/Cyclin K (Homo sapiens, UniProt P50750); test: NanoBRET live-cell target engagement, NanoLuc-CDK9/Cyclin K in HEK-293; assay type: binding; details: CDK9/K, read-out: Inhibition at 10µM (%)
Chain of CDK9/Cyclin K (P50750 whole entry): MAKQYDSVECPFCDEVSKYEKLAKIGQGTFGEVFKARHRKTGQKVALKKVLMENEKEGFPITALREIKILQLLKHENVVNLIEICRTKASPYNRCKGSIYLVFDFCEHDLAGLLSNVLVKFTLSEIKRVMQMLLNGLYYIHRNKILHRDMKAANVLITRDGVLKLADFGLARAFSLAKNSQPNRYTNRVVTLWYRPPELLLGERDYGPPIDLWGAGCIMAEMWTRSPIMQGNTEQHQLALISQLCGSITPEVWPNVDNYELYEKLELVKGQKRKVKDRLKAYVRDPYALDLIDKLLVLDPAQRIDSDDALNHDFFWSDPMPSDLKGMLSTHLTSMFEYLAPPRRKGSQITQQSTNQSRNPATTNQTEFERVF
Chain of CDK9/Cyclin K (O75909 whole entry partner): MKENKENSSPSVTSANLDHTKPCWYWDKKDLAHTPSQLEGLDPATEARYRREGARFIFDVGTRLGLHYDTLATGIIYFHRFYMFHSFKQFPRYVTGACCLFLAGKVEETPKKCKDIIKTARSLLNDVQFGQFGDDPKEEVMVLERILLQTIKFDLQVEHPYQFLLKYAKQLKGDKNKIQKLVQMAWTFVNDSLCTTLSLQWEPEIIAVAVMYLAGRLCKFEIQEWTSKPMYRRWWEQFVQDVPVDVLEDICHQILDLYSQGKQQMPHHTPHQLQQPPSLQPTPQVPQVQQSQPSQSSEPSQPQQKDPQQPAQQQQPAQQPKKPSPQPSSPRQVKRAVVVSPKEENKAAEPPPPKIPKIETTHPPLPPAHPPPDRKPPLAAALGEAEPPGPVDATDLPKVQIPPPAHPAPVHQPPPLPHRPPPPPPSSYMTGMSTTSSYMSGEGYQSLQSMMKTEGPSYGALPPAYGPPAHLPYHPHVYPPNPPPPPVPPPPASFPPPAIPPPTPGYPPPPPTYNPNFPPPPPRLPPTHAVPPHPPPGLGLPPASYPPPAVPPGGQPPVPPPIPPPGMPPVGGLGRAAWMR

CDK11A/Cyclin L2 = target: T1, CDK11A/Cyclin L2 (Homo sapiens, UniProt Q9UQ88); test: NanoBRET live-cell target engagement, CDK11A-NanoLuc/Cyclin L2 in HEK-293; assay type: binding; details: CDK11a/L2, read-out: Inhibition at 10µM (%)
T1 sequence (Q9UQ88 1-783): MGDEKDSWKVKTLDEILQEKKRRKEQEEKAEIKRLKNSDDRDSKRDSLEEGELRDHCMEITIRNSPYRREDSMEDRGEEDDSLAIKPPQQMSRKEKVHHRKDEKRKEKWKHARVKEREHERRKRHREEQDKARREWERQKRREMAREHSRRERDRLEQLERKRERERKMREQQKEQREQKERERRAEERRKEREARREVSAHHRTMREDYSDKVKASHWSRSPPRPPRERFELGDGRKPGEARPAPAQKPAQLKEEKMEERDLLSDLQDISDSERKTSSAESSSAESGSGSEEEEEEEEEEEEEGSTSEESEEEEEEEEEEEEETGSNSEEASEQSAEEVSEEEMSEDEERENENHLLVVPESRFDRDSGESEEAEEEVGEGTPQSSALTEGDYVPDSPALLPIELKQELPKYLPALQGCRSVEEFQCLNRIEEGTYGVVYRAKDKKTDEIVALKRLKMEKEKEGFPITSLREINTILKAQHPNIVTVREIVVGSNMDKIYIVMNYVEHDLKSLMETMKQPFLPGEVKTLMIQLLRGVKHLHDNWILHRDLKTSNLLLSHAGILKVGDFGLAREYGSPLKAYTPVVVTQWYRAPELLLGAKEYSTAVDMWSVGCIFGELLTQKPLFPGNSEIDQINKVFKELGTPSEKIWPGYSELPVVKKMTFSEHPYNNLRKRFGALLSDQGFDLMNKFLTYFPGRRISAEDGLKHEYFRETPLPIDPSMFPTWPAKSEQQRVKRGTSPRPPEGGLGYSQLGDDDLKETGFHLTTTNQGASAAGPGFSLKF

CDK11B/Cyclin L2 = CDK11B/Cyclin L2 (Homo sapiens, UniProt P21127); test: NanoBRET live-cell target engagement, CDK11B-NanoLuc/Cyclin L2 in HEK-293; assay type: binding; details: CDK11b/L2, read-out: Inhibition at 10µM (%)
Chain of CDK11B/Cyclin L2 (P21127 1-782 isoform P21127-2): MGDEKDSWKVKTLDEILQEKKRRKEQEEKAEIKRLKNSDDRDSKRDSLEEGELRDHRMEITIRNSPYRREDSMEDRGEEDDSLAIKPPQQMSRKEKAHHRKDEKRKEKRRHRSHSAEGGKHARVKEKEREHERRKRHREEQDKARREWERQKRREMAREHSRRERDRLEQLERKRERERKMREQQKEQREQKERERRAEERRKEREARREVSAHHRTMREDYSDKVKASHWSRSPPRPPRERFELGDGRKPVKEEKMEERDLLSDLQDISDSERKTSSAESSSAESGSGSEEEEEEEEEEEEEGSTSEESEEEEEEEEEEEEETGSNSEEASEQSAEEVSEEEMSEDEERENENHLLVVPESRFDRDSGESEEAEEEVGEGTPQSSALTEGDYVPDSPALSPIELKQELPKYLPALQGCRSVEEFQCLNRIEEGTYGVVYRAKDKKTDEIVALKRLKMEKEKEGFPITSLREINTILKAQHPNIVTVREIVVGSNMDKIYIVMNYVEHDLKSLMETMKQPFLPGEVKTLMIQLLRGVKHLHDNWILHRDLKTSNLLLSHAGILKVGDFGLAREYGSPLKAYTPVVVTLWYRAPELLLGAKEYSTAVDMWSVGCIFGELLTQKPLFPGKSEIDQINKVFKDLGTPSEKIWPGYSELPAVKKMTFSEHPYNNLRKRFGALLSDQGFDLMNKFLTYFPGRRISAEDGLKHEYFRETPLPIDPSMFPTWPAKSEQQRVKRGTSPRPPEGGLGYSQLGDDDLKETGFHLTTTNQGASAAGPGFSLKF

CDK12/Cyclin K = CDK12/Cyclin K (Homo sapiens, UniProt Q9NYV4); test: NanoBRET live-cell target engagement, CDK12-NanoLuc/Cyclin K in HEK-293; assay type: binding; details: CDK12/K, read-out: Inhibition at 10µM (%)
CDK13/Cyclin K = CDK13/Cyclin K (Homo sapiens, UniProt Q14004); test: NanoBRET live-cell target engagement, CDK13-NanoLuc/Cyclin K in HEK-293; assay type: binding; details: CDK13/K, read-out: Inhibition at 10µM (%)
CDK14/Cyclin Y = CDK14/Cyclin Y (Homo sapiens, UniProt O94921); test: NanoBRET live-cell target engagement, CDK14-NanoLuc/Cyclin Y in HEK-293; assay type: binding; details: CDK14/Y, read-out: Inhibition at 10µM (%)
Chain of CDK14/Cyclin Y (O94921 whole entry): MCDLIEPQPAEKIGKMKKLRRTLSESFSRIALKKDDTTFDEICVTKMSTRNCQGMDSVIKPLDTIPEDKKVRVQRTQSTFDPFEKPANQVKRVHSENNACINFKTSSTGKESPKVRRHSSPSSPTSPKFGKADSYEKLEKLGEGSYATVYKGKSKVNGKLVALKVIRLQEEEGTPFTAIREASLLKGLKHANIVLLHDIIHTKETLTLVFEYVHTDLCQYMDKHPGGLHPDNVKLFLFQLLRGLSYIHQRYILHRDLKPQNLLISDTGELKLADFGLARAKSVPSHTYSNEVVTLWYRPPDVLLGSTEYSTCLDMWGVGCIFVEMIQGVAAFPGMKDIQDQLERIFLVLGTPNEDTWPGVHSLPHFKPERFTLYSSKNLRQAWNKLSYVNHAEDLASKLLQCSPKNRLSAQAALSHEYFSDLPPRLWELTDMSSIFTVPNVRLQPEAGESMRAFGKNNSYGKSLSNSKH
Chain of CDK14/Cyclin Y (Q8ND76 whole entry partner): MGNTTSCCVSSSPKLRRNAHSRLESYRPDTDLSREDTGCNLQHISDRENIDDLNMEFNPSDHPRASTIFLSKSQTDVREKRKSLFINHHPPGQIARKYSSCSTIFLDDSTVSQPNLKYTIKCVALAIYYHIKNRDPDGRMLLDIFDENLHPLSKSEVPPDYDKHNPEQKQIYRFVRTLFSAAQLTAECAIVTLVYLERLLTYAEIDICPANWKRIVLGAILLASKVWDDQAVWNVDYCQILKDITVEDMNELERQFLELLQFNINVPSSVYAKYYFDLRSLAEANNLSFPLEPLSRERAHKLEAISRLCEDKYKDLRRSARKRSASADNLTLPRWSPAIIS

CDK15/Cyclin Y = CDK15/Cyclin Y (Homo sapiens, UniProt Q96Q40); test: NanoBRET live-cell target engagement, NanoLuc-CDK15/Cyclin Y in HEK-293; assay type: binding; details: CDK15/Y, read-out: Inhibition at 10µM (%)
CDK16/Cyclin Y = CDK16/Cyclin Y (Homo sapiens, UniProt Q00536); test: NanoBRET live-cell target engagement, CDK16-NanoLuc/Cyclin Y in HEK-293; assay type: binding; details: CDK16/Y, read-out: Inhibition at 10µM (%)
CDK17/Cyclin Y = CDK17/Cyclin Y (Homo sapiens, UniProt Q00537); test: NanoBRET live-cell target engagement, CDK17-NanoLuc/Cyclin Y in HEK-293; assay type: binding; details: CDK17/Y, read-out: Inhibition at 10µM (%)
Chain of CDK17/Cyclin Y (Q00537 whole entry): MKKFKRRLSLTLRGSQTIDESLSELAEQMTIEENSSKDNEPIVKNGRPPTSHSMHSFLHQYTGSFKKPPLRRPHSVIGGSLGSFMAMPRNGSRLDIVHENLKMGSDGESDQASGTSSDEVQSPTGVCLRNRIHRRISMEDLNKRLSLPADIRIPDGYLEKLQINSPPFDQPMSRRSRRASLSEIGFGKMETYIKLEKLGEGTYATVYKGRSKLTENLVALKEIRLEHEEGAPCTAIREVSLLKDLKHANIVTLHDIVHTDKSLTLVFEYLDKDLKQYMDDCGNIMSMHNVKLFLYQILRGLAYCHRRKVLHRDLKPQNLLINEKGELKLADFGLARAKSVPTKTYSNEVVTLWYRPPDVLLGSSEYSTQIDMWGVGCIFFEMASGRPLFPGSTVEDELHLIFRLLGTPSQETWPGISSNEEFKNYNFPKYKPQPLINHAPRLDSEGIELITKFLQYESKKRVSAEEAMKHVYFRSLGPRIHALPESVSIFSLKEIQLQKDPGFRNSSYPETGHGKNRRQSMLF
Chain of CDK17/Cyclin Y (Q8ND76 whole entry partner): as the sequence (Q8ND76 whole entry partner) above

CDK18/Cyclin Y = CDK18/Cyclin Y (Homo sapiens, UniProt Q07002); test: NanoBRET live-cell target engagement, CDK18-NanoLuc/Cyclin Y in HEK-293; assay type: binding; details: CDK18/Y, read-out: Inhibition at 10µM (%)
Chain of CDK18/Cyclin Y (Q07002 whole entry): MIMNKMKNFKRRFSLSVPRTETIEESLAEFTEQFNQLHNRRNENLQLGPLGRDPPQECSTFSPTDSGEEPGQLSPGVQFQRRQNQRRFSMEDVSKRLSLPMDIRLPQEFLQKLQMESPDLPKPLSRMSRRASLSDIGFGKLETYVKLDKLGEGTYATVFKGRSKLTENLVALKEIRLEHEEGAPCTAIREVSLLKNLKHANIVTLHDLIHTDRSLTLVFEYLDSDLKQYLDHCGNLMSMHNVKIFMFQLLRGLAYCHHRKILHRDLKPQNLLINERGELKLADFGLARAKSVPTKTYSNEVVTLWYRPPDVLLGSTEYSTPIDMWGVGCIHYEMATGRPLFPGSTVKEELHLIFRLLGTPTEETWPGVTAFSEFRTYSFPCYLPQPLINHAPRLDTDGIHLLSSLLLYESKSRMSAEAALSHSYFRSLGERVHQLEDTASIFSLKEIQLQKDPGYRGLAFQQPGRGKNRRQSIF
Chain of CDK18/Cyclin Y (Q8ND76 whole entry partner): as the sequence (Q8ND76 whole entry partner) above

CDK20/Cyclin H = CDK20/Cyclin H (Homo sapiens, UniProt Q8IZL9); test: NanoBRET live-cell target engagement, NanoLuc-CDK20/Cyclin H in HEK-293; assay type: binding; details: CDK20/H, read-out: Inhibition at 10µM (%)
CDK19/Cyclin C = CDK19/Cyclin C (Homo sapiens, UniProt Q9BWU1); test: NanoBRET live-cell target engagement, NanoLuc-CDK19/Cyclin C in HEK-293; details: read-out: Inhibition at 10µM (%), CDK19/C
CDK10/Cyclin L2 = CDK10/Cyclin L2 (Homo sapiens, UniProt Q15131); test: NanoBRET live-cell target engagement, CDK10-NanoLuc/Cyclin L2 in HEK-293; details: read-out: Inhibition at 10µM (%), CDK10/L2

Chain of CDK4/Cyclin D1 (P11802 whole entry): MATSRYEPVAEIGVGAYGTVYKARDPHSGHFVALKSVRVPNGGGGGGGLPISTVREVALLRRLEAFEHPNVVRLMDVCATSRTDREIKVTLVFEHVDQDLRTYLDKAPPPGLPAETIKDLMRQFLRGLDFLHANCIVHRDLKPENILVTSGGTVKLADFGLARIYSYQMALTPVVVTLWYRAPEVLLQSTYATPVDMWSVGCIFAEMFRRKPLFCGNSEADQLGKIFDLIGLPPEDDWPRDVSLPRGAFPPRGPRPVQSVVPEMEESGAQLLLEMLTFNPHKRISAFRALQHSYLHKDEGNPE
Chain of CDK4/Cyclin D1 (P24385 whole entry partner): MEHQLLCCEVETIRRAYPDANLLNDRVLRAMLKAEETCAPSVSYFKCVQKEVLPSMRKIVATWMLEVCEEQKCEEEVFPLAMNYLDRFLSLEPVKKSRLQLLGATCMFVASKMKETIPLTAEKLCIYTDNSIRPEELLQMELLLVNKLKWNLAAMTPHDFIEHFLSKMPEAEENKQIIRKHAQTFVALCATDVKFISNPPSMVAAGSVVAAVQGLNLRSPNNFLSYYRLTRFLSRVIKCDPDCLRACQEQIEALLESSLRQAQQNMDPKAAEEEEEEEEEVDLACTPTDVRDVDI

IC50 (CDK4/Cyclin D1; average (± SEM where n=3)): 42 ± 9 nM
inhibition at 10 µM (CDK4/Cyclin D1; average): 18.1%
IC50 (CDK4/Cyclin D1; experiment 1): 32 nM
inhibition at 10 µM (CDK4/Cyclin D1; experiment 1): 42.3%
IC50 (CDK4/Cyclin D1; experiment 2): 33 nM
inhibition at 10 µM (CDK4/Cyclin D1; experiment 2): -6%
IC50 (CDK4/Cyclin D1; experiment 3): 60 nM
inhibition at 10 µM (CDK5/CDK5R1; average): 76.3%
inhibition at 10 µM (CDK5/CDK5R1; experiment 1): 78.3%
inhibition at 10 µM (CDK5/CDK5R1; experiment 2): 74.3%
inhibition at 10 µM (CDK6/Cyclin D1; average): 12.9%
inhibition at 10 µM (CDK6/Cyclin D1; experiment 1): 20.2%
inhibition at 10 µM (CDK6/Cyclin D1; experiment 2): 5.6%
inhibition at 10 µM (CDK8/Cyclin C; average): 4.3%
inhibition at 10 µM (CDK8/Cyclin C; experiment 1): 5.3%
inhibition at 10 µM (CDK8/Cyclin C; experiment 2): 3.3%
inhibition at 10 µM (CDK9/Cyclin K; average): 85.7%
inhibition at 10 µM (CDK9/Cyclin K; experiment 1): 85%
inhibition at 10 µM (CDK9/Cyclin K; experiment 2): 86.4%
inhibition at 10 µM (CDK11A/Cyclin L2; average): 43.5%
inhibition at 10 µM (CDK11A/Cyclin L2; experiment 1): 43.2%
inhibition at 10 µM (CDK11A/Cyclin L2; experiment 2): 43.8%
inhibition at 10 µM (CDK11B/Cyclin L2; average): 45.5%
inhibition at 10 µM (CDK11B/Cyclin L2; experiment 1): 49%
inhibition at 10 µM (CDK11B/Cyclin L2; experiment 2): 41.9%
inhibition at 10 µM (CDK12/Cyclin K; average): 43.6%
inhibition at 10 µM (CDK12/Cyclin K; experiment 1): 42.1%
inhibition at 10 µM (CDK12/Cyclin K; experiment 2): 45.2%
inhibition at 10 µM (CDK13/Cyclin K; average): 34.1%
inhibition at 10 µM (CDK13/Cyclin K; experiment 1): 32.9%
inhibition at 10 µM (CDK13/Cyclin K; experiment 2): 35.2%
inhibition at 10 µM (CDK14/Cyclin Y; average): 45.3%
inhibition at 10 µM (CDK14/Cyclin Y; experiment 1): 42.1%
inhibition at 10 µM (CDK14/Cyclin Y; experiment 2): 48.5%
inhibition at 10 µM (CDK15/Cyclin Y; average): 76.4%
inhibition at 10 µM (CDK15/Cyclin Y; experiment 1): 72.2%
inhibition at 10 µM (CDK15/Cyclin Y; experiment 2): 80.6%
inhibition at 10 µM (CDK16/Cyclin Y; experiment 1): 70.8%
inhibition at 10 µM (CDK16/Cyclin Y; experiment 2): 56.9%
inhibition at 10 µM (CDK17/Cyclin Y; average): 72%
inhibition at 10 µM (CDK17/Cyclin Y; experiment 1): 77.7%
inhibition at 10 µM (CDK17/Cyclin Y; experiment 2): 66.3%
inhibition at 10 µM (CDK18/Cyclin Y; average): 76.2%
inhibition at 10 µM (CDK18/Cyclin Y; experiment 1): 75.7%
inhibition at 10 µM (CDK18/Cyclin Y; experiment 2): 76.7%
inhibition at 10 µM (CDK20/Cyclin H; experiment 1): 27.8%
inhibition at 10 µM (CDK20/Cyclin H; experiment 2): 33.8%
inhibition at 10 µM (CDK19/Cyclin C; average): 7.2%
inhibition at 10 µM (CDK19/Cyclin C; experiment 1): 16%
inhibition at 10 µM (CDK19/Cyclin C; experiment 2): -1.6%
inhibition at 10 µM (CDK10/Cyclin L2; average): 40.4%
inhibition at 10 µM (CDK10/Cyclin L2; experiment 1): 38.5%
inhibition at 10 µM (CDK10/Cyclin L2; experiment 2): 42.3%
SMILES: CC(C)c1cnn2c(NCc3ccccc3)cc(NC[C@H]3CCNC[C@@H]3O)nc12 [CT7001]
